# Test results: patent US20130303509A1, “NAMPT INHIBITORS” (AbbVie Inc., priority 2012, published 2013)
# Test system: PC3 cells
# Assay: NAMPT Cell Proliferation Assay
# Type: cell-based
# Conditions: Homo sapiens, PC-3, 120 h, 5 days incubation, cell viability by Cell Titer Glo
# Protocol: NAMPT Cell Proliferation Assay
# PC3 cells were seeded in 96-well black plates (Corning #3904) at 500 cells)Owell in 90 µl of RPMI media containing 10% heat-inactivated FBS and incubated overnight at 37° C. and 5% CO2 to allow cells to attach to wells. The following day, test compounds were serially diluted in neat DMSO to 1000× final concentrations prior to dilution with RPMI media to 10× and 1% DMSO. […] of the 10× compounds were then transferred to wells containing cells to produce a dose response of 10-fold dilutions from […] to 1×10^−[…]. Cells were incubated for 5 days at 37° C. and 5% CO2, then cell viability was measured using Cell Titer Glo reagent (Promega #G7571). Percent inhibition values were calculated and fitted to a sigmoidal dose response curves using Assay Explorer software to determine IC50s.
row,Compound,IC50 [nM]
1,"O=C(Nc1ccc(C2CCN(C(=O)c3cc(Cl)ccc3Cl)CC2)cc1)[C@H]1CCN(c2cccnn2)C1 [Example 695, (3S)-N-{4-[1-(2,5-dichlorobenzoyl)piperidin-4-yl]phenyl}-1-(pyridazin-3-yl)pyrrolidine-3-carboxamide]",6.16
2,"O=C(Nc1ccc(C2CCN(C(=O)COCc3ccccc3)CC2)cc1)C1CN(c2cccnn2)C1 [Example 409, N-(4-{1-[(benzyloxy)acetyl]piperidin-4-yl}phenyl)-1-(pyridazin-3-yl)azetidine-3-carboxamide]",6.72
3,"Cc1ccc(N2CC[C@H](C(=O)Nc3ccc(OC4CCN(C(=O)c5ccccc5)CC4)cc3)C2)nn1 [Example 837, (3S)—N-{4-[(1-benzoylpiperidin-4-yl)oxy]phenyl}-1-(6-methylpyridazin-3-yl)pyrrolidine-3-carboxamide]",769
4,"Cc1ncccc1N1CC(C(=O)Nc2ccc(C3CCN(C(=O)CCN4CCCCC4)CC3)cc2)C1 [Example 190, 1-(2-methylpyridin-3-yl)-N-(4-{1-[3-(piperidin-1-yl)propanoyl]piperidin-4-yl}phenyl)azetidine-3-carboxamide]",694
5,"CC1(C(=O)N2CCC(c3ccc(NC(=O)C4CN(c5cccnn5)C4)cc3)CC2)CCCCC1 [Example 437, N-(4-{1-[(1-methylcyclohexyl)carbonyl]piperidin-4-yl}phenyl)-1-(pyridazin-3-yl)azetidine-3-carboxamide]",0.98
6,"COCC(=O)N1CCC(c2ccc(NC(=O)C3CN(c4cccnn4)C3)cc2)CC1 [Example 333, N-{4-[1-(methoxyacetyl)piperidin-4-yl]phenyl}-1-(pyridazin-3-yl)azetidine-3-carboxamide]",5.68
7,"Cc1ncccc1N1CC(C(=O)Nc2ccc(C3CCN(C(=O)[C@@H]4CCC(=O)N4)CC3)cc2)C1 [Example 174, 1-(2-methylpyridin-3-yl)-N-{4-[1-(5-oxo-L-prolyl)piperidin-4-yl]phenyl}azetidine-3-carboxamide]",1130
8,"O=C(Nc1ccc(OC2CCN(C(=O)[C@H]3CCCO3)CC2)cc1)[C@H]1CCN(c2cccnc2)C1 [Example 14, (3S)-1-(pyridin-3-yl)-N-[4-({1-[(2R)-tetrahydrofuran-2-ylcarbonyl]piperidin-4-yl}oxy)phenyl]pyrrolidine-3-carboxamide]",54.8
9,"O=C(Nc1ccc(OC2CCN(C(=O)c3ccc(C(F)(F)F)cc3)CC2)cc1)C1CN(c2cccnn2)C1 [Example 237, 1-(pyridazin-3-yl)-N-[4-({1-[4-(trifluoromethyl)benzoyl]piperidin-4-yl}oxy)phenyl]azetidine-3-carboxamide]",10.3
10,"CC(C)(C)OC(=O)N1CCC(Oc2ccc(C(=O)N[C@@H]3CCN(c4cccnc4)C3)cc2)CC1 [Example 28, tert-butyl 4-(4-{[(3R)-1-(pyridin-3-yl)pyrrolidin-3-yl]carbamoyl}phenoxy)piperidine-1-carboxylate]",> 10000
11,"O=C(Nc1ccc(OC2CCN(C(=O)C3CCCCC3)CC2)cc1)[C@H]1CCN(c2cccnn2)C1 [Example 796, (3S)—N-(4-{[1-(cyclohexylcarbonyl)piperidin-4-yl]oxy}phenyl)-1-(pyridazin-3-yl)pyrrolidine-3-carboxamide]",11.7
12,"Cc1ncccc1N1CC(C(=O)Nc2ccc(C3CCN(C(=O)c4ccc(Cl)cc4)CC3)cc2)C1 [Example 156, N-{4-[1-(4-chlorobenzoyl)piperidin-4-yl]phenyl}-1-(2-methylpyridin-3-yl)azetidine-3-carboxamide]",712
13,"O=C(Nc1ccc(S(=O)(=O)C2CCN(C(=O)CC3CC3)CC2)cc1)C1CN(c2cccnn2)C1 [Example 569, N-(4-{[1-(cyclopropylacetyl)piperidin-4-yl]sulfonyl}phenyl)-1-(pyridazin-3-yl)azetidine-3-carboxamide]",207
14,"O=C(Nc1ccc(OC2CCN(C(=O)c3cscn3)CC2)cc1)C1CN(c2ccnnc2)C1 [Example 272, 1-(pyridazin-4-yl)-N-(4-{[1-(1,3-thiazol-4-ylcarbonyl)piperidin-4-yl]oxy}phenyl)azetidine-3-carboxamide]",79.5
15,"O=C(Nc1ccc(C2CCN(C(=O)c3ccoc3)CC2)cc1)C1CN(c2cccnn2)C1 [Example 375, N-{4-[1-(furan-3-ylcarbonyl)piperidin-4-yl]phenyl}-1-(pyridazin-3-yl)azetidine-3-carboxamide]",0.87
16,"O=C(Nc1ccc(C2CCN(C(=O)c3ccoc3)CC2)cc1)[C@H]1CCN(c2cccnn2)C1 [Example 687, (3S)-N-{4-[1-(furan-3-ylcarbonyl)piperidin-4-yl]phenyl}-1-(pyridazin-3-yl)pyrrolidine-3-carboxamide]",6.11
17,"Cc1ccc(C(=O)N2CCC(c3ccc(NC(=O)C4CN(c5cccnn5)C4)cc3)CC2)cc1C [Example 360, N-{4-[1-(3,4-dimethylbenzoyl)piperidin-4-yl]phenyl}-1-(pyridazin-3-yl)azetidine-3-carboxamide]",2.35
18,"CC(C)(C)OC(=O)N1CCC(c2ccc(C(=O)NC3CN(c4cccnn4)C3)cc2)CC1 [Example 314, tert-butyl 4-(4-{[1-(pyridazin-3-yl)azetidin-3-yl]carbamoyl}phenyl)piperidine-1-carboxylate]",621
19,"O=C(Nc1ccc(O[C@@H]2CCN(C(=O)CC3CC3)C2)cc1)C1CN(c2ccnnc2)C1 [Example 444, N-(4-{[(3R)-1-(cyclopropylacetyl)pyrrolidin-3-yl]oxy}phenyl)-1-(pyridazin-4-yl)azetidine-3-carboxamide]",78
20,"O=C(Nc1ccc(OC2CCN(C(=O)Cc3cccc(F)c3)CC2)cc1)C1CN(c2ccnnc2)C1 [Example 288, N-[4-({1-[(3-fluorophenyl)acetyl]piperidin-4-yl}oxy)phenyl]-1-(pyridazin-4-yl)azetidine-3-carboxamide]",24.8
21,"Cc1ncccc1N1CC(C(=O)Nc2ccc(C3CCN(C(=O)c4ccc(F)cc4)CC3)cc2)C1 [Example 155, N-{4-[1-(4-fluorobenzoyl)piperidin-4-yl]phenyl}-1-(2-methylpyridin-3-yl)azetidine-3-carboxamide]",701
22,"O=C(Nc1ccc(C2CCN(C(=O)c3ccc(Cl)cc3)CC2)cc1)C1CN(c2cccnn2)C1 [Example 401, N-{4-[1-(4-chlorobenzoyl)piperidin-4-yl]phenyl}-1-(pyridazin-3-yl)azetidine-3-carboxamide]",8.54
23,"CN1CCN(CC(=O)N2CCC(c3ccc(NC(=O)C4CN(c5cccnc5)C4)cc3)CC2)CC1 [Example 113, N-(4-{1-[(4-methylpiperazin-1-yl)acetyl]piperidin-4-yl}phenyl)-1-(pyridin-3-yl)azetidine-3-carboxamide]",6.34
24,"Cc1ccc(C(=O)N2CCC(c3ccc(NC(=O)C4CN(c5cccnn5)C4)cc3)CC2)s1 [Example 377, N-(4-{1-[(5-methylthiophen-2-yl)carbonyl]piperidin-4-yl}phenyl)-1-(pyridazin-3-yl)azetidine-3-carboxamide]",2.13
25,"CCC(C)(C)C(=O)N1CCC(Oc2ccc(NC(=O)C3CN(c4cccnn4)C3)cc2)CC1 [Example 248, N-(4-{[1-(2,2-dimethylbutanoyl)piperidin-4-yl]oxy}phenyl)-1-(pyridazin-3-yl)azetidine-3-carboxamide]",6.58
26,"O=C(Nc1ccc(C2CCN(C(=O)c3cccs3)CC2)cc1)C1CN(c2cccnc2)C1 [Example 127, 1-(pyridin-3-yl)-N-{4-[1-(thiophen-2-ylcarbonyl)piperidin-4-yl]phenyl}azetidine-3-carboxamide]",0.14
